Like-named read-outs stand apart in the source and are kept apart here.
Key:
[1] = Repeated daily dose pharmacokinetics of VB-201 in plasma, 14 days (Example 2); format: in vivo, human; conditions: for T1/2 (rec. ph.): recovery phase after Day 14
Protocol: Determination of VB-201 concentrations in plasma was performed using an HPLC-MS/MS (high performance liquid chromatography with tandem mass spectrometric detection) assay. Calibration was for a range of from 5 to 500 ng/ml for low doses and from 50 to 5000 ng/ml for high doses. Pharmacokinetic parameters were estimated by using a non-compartmental method, except for the AUC (area under curve), which was determined using a (log-) trapezoidal rule as the area above the previous trough level. […] The subjects were all healthy volunteers. […] 10 subjects received a placebo. The VB-201 was formulated in gelatin capsules enterocoated with Opadry AMB and Acryleze White. The 20 mg dose was originally in the form of 20 mg capsules. […] Pharmacokinetic blood samples for VB-201 determination were collected on Day 0 and Day 14, prior to dosing and 2, 4, 6, 8, 10, 12, 16 and 24 hours after dosing. […] Pharmacokinetic samples were also collected on Day 12 and Day 13, before dosing. Concentration-time curves were constructed for a time period of 24 hours on each of days 1 and 14. In addition, urine samples from the subjects receiving 30 mg VB-201 were assayed for VB-201 by high performance liquid chromatography-tandem mass spectrometry. […] The limit of detection was 1 ng/ml.

[2] = system: interferon-γ (IFN-γ)
Protocol: Plasma levels of interleukin-23 (IL-23) and interferon-γ (IFN-γ) were determined using the FlowCytomix human simplex kits (Bender Medsystems) for the aforementioned cytokines according to the manufacturer instructions. Acquisition of samples was performed using FacsCalibur (Becton Dickinson). Results were analyzed with the FlowCytomix Pro 2.2 Software.
Healthy subjects were treated once a day with 40 mg or 80 mg of VB-201, according to the procedures described in Example 4. Plasma was collected on day 0 (pre-dosing), on day 14 after dosing, and on day 28 after dosing (when administration lasted 28 days). Plasma levels of interleukin-23 (IL-23) and interferon-γ (IFN-γ) were determined as described hereinabove.

[3] = system: collagen-induced arthritis; conditions: in vivo animal model; cited from earlier work

Compound: CCCCCCCCCCCCCCCCOCC(COP(=O)([O-])OCC[N+](C)(C)C)OCCCCC(=O)O (centres unmarked) [VB-201, 1-hexadecyl-2-(4′-carboxybutyl)-glycerol-3-phosphocholine]
- multi-day accumulation relative to a single dose, estimated from elimination data ([1]; continued once per day dosing): approximately 4 times
- AUC(0-24) ([1]; daily 5 mg, Day 1): 1.731 µg·h/mL
- AUC(0-infinity) ([1]; daily 5 mg, Day 1): 6.005 µg·h/mL
- AUMC (0-24) ([1]; daily 5 mg, Day 1): 23670 hours^2*ng/ml
- AUMC (0-infinity) ([1]; daily 5 mg, Day 1): 341432 hours^2*ng/ml
- Cl/F (0-24) ([1]; daily 5 mg, Day 1): 3.92 L/h
- Cmax ([1]; daily 5 mg, Day 1): 0.11734 µg/mL
- Kc ([1]; daily 5 mg, Day 1): 0.0250 h⁻¹
- MTT ([1]; daily 5 mg, Day 1): 14.51 h
- T1/2 ([1]; daily 5 mg, Day 1): 32.18 h
- Tmax ([1]; daily 5 mg, Day 1): 10 h
- AUC(0-24) ([1]; daily 5 mg, Day 14): 6.238 µg·h/mL
- AUC(0-infinity) ([1]; daily 5 mg, Day 14): 15.913 µg·h/mL
- AUMC (0-24) ([1]; daily 5 mg, Day 14): 71173 hours^2*ng/ml
- AUMC (0-infinity) ([1]; daily 5 mg, Day 14): 821875 hours^2*ng/ml
- Accum. (accumulation) ([1]; daily 5 mg, Day 14): 4.75
- Cl/F (0-24) ([1]; daily 5 mg, Day 14): 0.90 L/h
- Cmax ([1]; daily 5 mg, Day 14): 0.34031 µg/mL
- Kc ([1]; daily 5 mg, Day 14): 0.0278 h⁻¹
- MTT ([1]; daily 5 mg, Day 14): 11.41 h
- T1/2 ([1]; daily 5 mg, Day 14): 30.95 h
- Tmax ([1]; daily 5 mg, Day 14): 9.67 h
- T1/2 (rec. ph.) ([1]; daily 5 mg): 44.17 h
- AUC(0-24) ([1]; daily 10 mg, Day 1): 3.494 µg·h/mL
- AUC(0-infinity) ([1]; daily 10 mg, Day 1): 9.912 µg·h/mL
- AUMC (0-24) ([1]; daily 10 mg, Day 1): 45924 hours^2*ng/ml
- AUMC (0-infinity) ([1]; daily 10 mg, Day 1): 440602 hours^2*ng/ml
- Cl/F (0-24) ([1]; daily 10 mg, Day 1): 4.92 L/h
- Cmax ([1]; daily 10 mg, Day 1): 0.22792 µg/mL
- Kc ([1]; daily 10 mg, Day 1): 0.0285 h⁻¹
- MTT ([1]; daily 10 mg, Day 1): 14.44 h
- T1/2 ([1]; daily 10 mg, Day 1): 27.09 h
- Tmax ([1]; daily 10 mg, Day 1): 11.33 h
- AUC(0-24) ([1]; daily 10 mg, Day 14): 12.617 µg·h/mL
- AUC(0-infinity) ([1]; daily 10 mg, Day 14): 36.183 µg·h/mL
- AUMC (0-24) ([1]; daily 10 mg, Day 14): 148375 hours^2*ng/ml
- AUMC (0-infinity) ([1]; daily 10 mg, Day 14): 2596242 hours^2*ng/ml
- Accum. (accumulation) ([1]; daily 10 mg, Day 14): 5.06
- Cl/F (0-24) ([1]; daily 10 mg, Day 14): 0.87 L/h
- Cmax ([1]; daily 10 mg, Day 14): 0.6658 µg/mL
- Kc ([1]; daily 10 mg, Day 14): 0.0267 h⁻¹
- MTT ([1]; daily 10 mg, Day 14): 11.72 h
- T1/2 ([1]; daily 10 mg, Day 14): 34.27 h
- Tmax ([1]; daily 10 mg, Day 14): 11 h
- T1/2 (rec. ph.) ([1]; daily 10 mg): 35.77 h
- AUC(0-24) ([1]; daily 20 mg, Day 1): 4.186 µg·h/mL
- AUC(0-infinity) ([1]; daily 20 mg, Day 1): 12.721 µg·h/mL
- AUMC (0-24) ([1]; daily 20 mg, Day 1): 58323 hours^2*ng/ml
- AUMC (0-infinity) ([1]; daily 20 mg, Day 1): 752013 hours^2*ng/ml
- Cl/F (0-24) ([1]; daily 20 mg, Day 1): 5.21 L/h
- Cmax ([1]; daily 20 mg, Day 1): 0.29423 µg/mL
- Kc ([1]; daily 20 mg, Day 1): 0.0307 h⁻¹
- MTT ([1]; daily 20 mg, Day 1): 14.04 h
- T1/2 ([1]; daily 20 mg, Day 1): 30.91 h
- Tmax ([1]; daily 20 mg, Day 1): 12.33 h
- AUC(0-24) ([1]; daily 20 mg, Day 14): 20.553 µg·h/mL
- AUC(0-infinity) ([1]; daily 20 mg, Day 14): 47.828 µg·h/mL
- AUMC (0-24) ([1]; daily 20 mg, Day 14): 229287 hours^2*ng/ml
- AUMC (0-infinity) ([1]; daily 20 mg, Day 14): 2070644 hours^2*ng/ml
- Accum. (accumulation) ([1]; daily 20 mg, Day 14): 4.90
- Cl/F (0-24) ([1]; daily 20 mg, Day 14): 1.46 L/h
- Cmax ([1]; daily 20 mg, Day 14): 1.27565 µg/mL
- Kc ([1]; daily 20 mg, Day 14): 0.0338 h⁻¹
- MTT ([1]; daily 20 mg, Day 14): 11.16 h
- T1/2 ([1]; daily 20 mg, Day 14): 25.09 h
- Tmax ([1]; daily 20 mg, Day 14): 7.33 h
- T1/2 (rec. ph.) ([1]; daily 20 mg): 30.89 h
- AUC(0-24) ([1]; daily 30 mg, Day 1): 6.409 µg·h/mL
- AUC(0-infinity) ([1]; daily 30 mg, Day 1): 67.386 µg·h/mL
- AUMC (0-24) ([1]; daily 30 mg, Day 1): 92749 hours^2*ng/ml
- AUMC (0-infinity) ([1]; daily 30 mg, Day 1): 11648110 hours^2*ng/ml
- Cl/F (0-24) ([1]; daily 30 mg, Day 1): 8.55 L/h
- Cmax ([1]; daily 30 mg, Day 1): 0.41658 µg/mL
- Kc ([1]; daily 30 mg, Day 1): 0.0220 h⁻¹
- MTT ([1]; daily 30 mg, Day 1): 14.73 h
- T1/2 ([1]; daily 30 mg, Day 1): 72.30 h
- Tmax ([1]; daily 30 mg, Day 1): 19 h
- AUC(0-24) ([1]; daily 30 mg, Day 14): 30.555 µg·h/mL
- AUC(0-infinity) ([1]; daily 30 mg, Day 14): 64.12 µg·h/mL
- AUMC (0-24) ([1]; daily 30 mg, Day 14): 358861 hours^2*ng/ml
- AUMC (0-infinity) ([1]; daily 30 mg, Day 14): 2456341 hours^2*ng/ml
- Accum. (accumulation) ([1]; daily 30 mg, Day 14): 7.07
- Cl/F (0-24) ([1]; daily 30 mg, Day 14): 1.09 L/h
- Cmax ([1]; daily 30 mg, Day 14): 1.8214 µg/mL
- Kc ([1]; daily 30 mg, Day 14): 0.0333 h⁻¹
- MTT ([1]; daily 30 mg, Day 14): 11.78 h
- T1/2 ([1]; daily 30 mg, Day 14): 23.64 h
- Tmax ([1]; daily 30 mg, Day 14): 10 h
- T1/2 (rec. ph.) ([1]; daily 30 mg): 32.78 h
- VB-201 in urine samples ([1]; daily 30 mg, HPLC-MS/MS, limit of detection 1 ng/ml): No traces of VB-201 could be detected
- induction or inhibition of metabolism ([1]; daily 5-30 mg): does not show significant induction or inhibition of metabolism
- average accumulation rate ([1]; daily 5-30 mg, Day 14): approximately 5
- IFN-γ plasma levels ([2]; 40 mg per day, 14 days, one subject (second had no detectable levels)): considerably reduced
- IFN-γ plasma levels ([2]; 80 mg per day, 28 days, two subjects (third had no detectable levels)): considerably reduced
- efficacy in collagen-induced arthritis [3]: effective
